Source: PubChem BioAssay AID1259407 (Chemical Carcinogenesis Research Information System (CCRIS), 2018)
Entries after “also recorded” stand apart in the source; their conditions may differ. Calls of active or inactive are those of the source. No rule for the calls is given here.

Tested on: CCRIS mutagenicity, Ames/micronucleus/aberration tests
Experiment: CCRIS mutagenicity studies
[1] = Test System: AMES SALMONELLA TYPHIMURIUM, Strain/Indicator: TA100, Metabolic Activation: NONE, Method: PREINCUBATION
[2] = Test System: AMES SALMONELLA TYPHIMURIUM, Strain/Indicator: TA1535, Metabolic Activation: NONE, Method: PREINCUBATION
[3] = Test System: AMES SALMONELLA TYPHIMURIUM, Strain/Indicator: TA100, Metabolic Activation: NONE, Method: STANDARD PLATE
[4] = Test System: AMES SALMONELLA TYPHIMURIUM, Strain/Indicator: TA98, Metabolic Activation: NONE, Method: PREINCUBATION
[5] = Test System: AMES SALMONELLA TYPHIMURIUM, Strain/Indicator: TA98, Metabolic Activation: RAT LIVER S-9, PHENOBARBITAL AND BETA-NAPHTHOFLAVONE, Method: PREINCUBATION
[6] = Test System: AMES SALMONELLA TYPHIMURIUM, Strain/Indicator: TA100, Metabolic Activation: RAT LIVER S-9, PHENOBARBITAL AND BETA-NAPHTHOFLAVONE, Method: PREINCUBATION
[7] = Test System: AMES SALMONELLA TYPHIMURIUM, Strain/Indicator: TA1535, Metabolic Activation: RAT LIVER S-9, PHENOBARBITAL AND BETA-NAPHTHOFLAVONE, Method: PREINCUBATION
[8] = Test System: AMES SALMONELLA TYPHIMURIUM, Strain/Indicator: TA1537, Metabolic Activation: NONE, Method: PREINCUBATION
[9] = Test System: AMES SALMONELLA TYPHIMURIUM, Strain/Indicator: TA1537, Metabolic Activation: RAT LIVER S-9, PHENOBARBITAL AND BETA-NAPHTHOFLAVONE, Method: PREINCUBATION
[10] = Test System: E.COLI, Strain/Indicator: WP2UVRA, Metabolic Activation: NONE, Method: PREINCUBATION
[11] = Test System: E.COLI, Strain/Indicator: WP2UVRA, Metabolic Activation: RAT LIVER S-9, PHENOBARBITAL AND BETA-NAPHTHOFLAVONE, Method: PREINCUBATION

Q: Which mutagenic call [1] does the source give for NC(=O)N(CCCC(=O)O)N=O here?
A: active; positive

Q: And the mutagenic call [2]?
A: active; positive

Q: What about the mutagenic call (Test System: E. COLI B, Strain/Indicator: H/R30R, Metabolic Activation: NONE) of the same molecule?
A: active; positive

Q: And the mutagenic call (Test System: E. COLI B, Strain/Indicator: HS30R, Metabolic Activation: NONE)?
A: active; positive

Q: How did the mutagenic call [3] turn out when O=C(/C=C/c1ccccc1)c1ccc([N+](=O)[O-])cc1 was run?
A: inactive; negative

Q: What about the mutagenic call (Test System: AMES SALMONELLA TYPHIMURIUM, Strain/Indicator: TA100, Metabolic Activation: RAT, LIVER, S-9, AROCLOR 1254, Method: STANDARD PLATE) of the same molecule?
A: inactive; negative

Q: What does the source list for O=c1n(CC2CO2)c(=O)n(CC2CO2)c(=O)n1CC1CO1 (configuration not stated)?
A: mutagenic call (End Point: IN VITRO CHROMOSOMAL ABERRATIONS, Test System: CHINESE HAMSTER LUNG CELLS (CHL), Metabolic Activation: NONE): active; positive (structural changes); mutagenic call (End Point: IN VITRO CHROMOSOMAL ABERRATIONS, Test System: CHINESE HAMSTER LUNG CELLS (CHL), Metabolic Activation: RAT, LIVER, S-9, KC-400): inactive; negative; mutagenic call (End Point: IN VITRO CHROMOSOMAL ABERRATIONS, Test System: CHINESE HAMSTER OVARY CELLS (CHO), Metabolic Activation: NONE): active; positive (structural changes); mutagenic call (End Point: IN VITRO CHROMOSOMAL ABERRATIONS, Test System: CHINESE HAMSTER OVARY CELLS (CHO), Metabolic Activation: RAT, LIVER, S-9, AROCLOR 1254): active; positive (structural changes); mutagenic call (End Point: IN VITRO CHROMOSOMAL ABERRATIONS, Test System: CHL CELLS, Metabolic Activation: RAT, LIVER, S-9, SODIUM PHENOBARBITAL AND 5,6-BENZOFLAVONE): active; positive (structural changes); mutagenic call (End Point: IN VITRO CHROMOSOMAL ABERRATIONS, Test System: CHL CELLS, Metabolic Activation: S-9): active; positive; interlaboratory comparison between 2 labs; all reported positive resul; also recorded: active; positive (structural changes); interlaboratory comparison between 2 labs; both r; mutagenic call (End Point: IN VITRO CHROMOSOMAL ABERRATIONS, Test System: CHO CELLS, Metabolic Activation: S-9): active; positive (structural changes); interlaboratory comparison between 2 labs; both r; also recorded: active; positive; interlaboratory comparison among 3 labs; all reported positive results; mutagenic call (End Point: IN VITRO CHROMOSOMAL ABERRATIONS, Test System: CHO-LB CELLS, Metabolic Activation: NONE): active; positive; mutagenic call (End Point: IN VITRO CHROMOSOMAL ABERRATIONS, Test System: CHO-LB CELLS, Metabolic Activation: RAT, LIVER, S-9, AROCLOR 1254): active; positive; mutagenic call (Test System: AMES SALMONELLA TYPHIMURIUM, Strain/Indicator: TA98, Metabolic Activation: HAMSTER, LIVER, S-9, AROCLOR 1254 (30%), Method: PREINCUBATION): active; positive; mutagenic call [4]: active; positive; mutagenic call [5]: active; positive; mutagenic call (Test System: AMES SALMONELLA TYPHIMURIUM, Strain/Indicator: TA98, Metabolic Activation: RAT, LIVER, S-9, AROCLOR 1254 (30%), Method: PREINCUBATION): active; positive; mutagenic call (Test System: AMES SALMONELLA TYPHIMURIUM, Strain/Indicator: TA100, Metabolic Activation: HAMSTER, LIVER, S-9, AROCLOR 1254 (30%), Method: PREINCUBATION): active; positive; mutagenic call [1]: active; positive; mutagenic call [6]: active; positive; mutagenic call (Test System: AMES SALMONELLA TYPHIMURIUM, Strain/Indicator: TA100, Metabolic Activation: RAT, LIVER, S-9, AROCLOR 1254 (30%), Method: PREINCUBATION): active; positive; mutagenic call [2]: active; positive; mutagenic call [7]: active; positive; mutagenic call [8]: inactive; negative; mutagenic call [9]: inactive; negative; mutagenic call [10]: inactive; negative; mutagenic call [11]: inactive; negative

Q: Which mutagenic call (Test System: E. COLI, Strain/Indicator: WP2 UVRA, Metabolic Activation: NONE, Method: STANDARD PLATE) does the source give for Clc1cccc(C2CO2)c1 (configuration not stated) here?
A: active; positive

Q: Which mutagenic call [4] does the source give for CC1=CC(=C(c2ccc(N)cc2)c2ccc(N)cc2)C=CC1=N here?
A: inactive; negative

Q: What about the mutagenic call [5] of the same molecule?
A: inactive; negative

Q: And the mutagenic call [1]?
A: inactive; negative

Q: What about the mutagenic call [6] of the same molecule?
A: inactive; negative

Q: And the mutagenic call (Test System: AMES SALMONELLA TYPHIMURIUM, Strain/Indicator: TA100, Method: PREINCUBATION)?
A: active; positive

Q: What about the mutagenic call [2] of the same molecule?
A: inactive; negative

Q: What about the mutagenic call [7] of the same molecule?
A: inactive; negative

Q: What about the mutagenic call [8] of the same molecule?
A: inactive; negative

Q: What about the mutagenic call [9] of the same molecule?
A: inactive; negative

Q: And the mutagenic call (Test System: AMES SALMONELLA TYPHIMURIUM, Strain/Indicator: TA1538, Metabolic Activation: NONE, Method: PREINCUBATION)?
A: inactive; negative

Q: What about the mutagenic call (Test System: AMES SALMONELLA TYPHIMURIUM, Strain/Indicator: TA1538, Metabolic Activation: RAT LIVER S-9, PHENOBARBITAL AND BETA-NAPHTHOFLAVONE, Method: PREINCUBATION) of the same molecule?
A: inactive; negative

Q: What about the mutagenic call [10] of the same molecule?
A: inactive; negative

Q: What about the mutagenic call [11] of the same molecule?
A: inactive; negative

Q: For c1ccc2c(CC3CO3)cccc2c1 (configuration not stated), which mutagenic call [1] is on record?
A: active; positive

Q: What about the mutagenic call [3] of the same molecule?
A: active; positive

Q: What about the mutagenic call (Test System: AMES SALMONELLA TYPHIMURIUM, Strain/Indicator: TA104, Metabolic Activation: NONE, Method: STANDARD PLATE) of the same molecule?
A: active; positive

Q: What about the mutagenic call [2] of the same molecule?
A: active; positive

Q: And the mutagenic call (Test System: AMES SALMONELLA TYPHIMURIUM, Strain/Indicator: TA1535, Metabolic Activation: NONE, Method: STANDARD PLATE)?
A: active; positive

Q: And the mutagenic call (Test System: AMES SALMONELLA TYPHIMURIUM, Strain/Indicator: TA4001, Metabolic Activation: NONE, Method: STANDARD PLATE)?
A: active; positive

Q: What about the mutagenic call (Test System: AMES SALMONELLA TYPHIMURIUM, Strain/Indicator: TA4006, Metabolic Activation: NONE, Method: STANDARD PLATE) of the same molecule?
A: active; positive

Q: With CCCCc1oc2ccccc2c1C(=O)c1cc(I)c(OCCN(CC)CC)c(I)c1 as the molecule, how does the mutagenic call (End Point: In vivo chromosomal aberrations, Test System: Bone marrow cells, Species: Rat, Strain/Sex: SHR (spontaneously hypertensive)/Female, Route: Oral) read?
A: inactive; negative

Q: And the mutagenic call (End Point: In vivo chromosomal aberrations, Test System: Bone marrow cells, Species: Rat, Strain/Sex: Wistar-Kyoto (WKY)/Female, Route: Oral)?
A: active; positive

Q: With CCOC(=O)[C@H](CCc1ccccc1)N[C@@H](C)C(=O)N1[C@H](C(=O)O)C[C@H]2CCCC[C@@H]21 as the molecule, how does the mutagenic call [4] read?
A: inactive; negative

Q: And the mutagenic call (Test System: AMES SALMONELLA TYPHIMURIUM, Strain/Indicator: TA98, Metabolic Activation: RAT, LIVER, S-9, PHENOBARBITAL AND 5,6-BENZOFLAVONE, Method: PREINCUBATION)?
A: inactive; negative

Q: And the mutagenic call [1]?
A: inactive; negative

Q: What about the mutagenic call (Test System: AMES SALMONELLA TYPHIMURIUM, Strain/Indicator: TA100, Metabolic Activation: RAT, LIVER, S-9, PHENOBARBITAL AND 5,6-BENZOFLAVONE, Method: PREINCUBATION) of the same molecule?
A: inactive; negative

Q: And the mutagenic call [2]?
A: inactive; negative

Q: What about the mutagenic call (Test System: AMES SALMONELLA TYPHIMURIUM, Strain/Indicator: TA1535, Metabolic Activation: RAT, LIVER, S-9, PHENOBARBITAL AND 5,6-BENZOFLAVONE, Method: PREINCUBATION) of the same molecule?
A: inactive; negative

Q: And the mutagenic call [8]?
A: inactive; negative

Q: What about the mutagenic call (Test System: AMES SALMONELLA TYPHIMURIUM, Strain/Indicator: TA1537, Metabolic Activation: RAT, LIVER, S-9, PHENOBARBITAL AND 5,6-BENZOFLAVONE, Method: PREINCUBATION) of the same molecule?
A: inactive; negative

Q: What about the mutagenic call (Test System: E. COLI, Strain/Indicator: WP2 UVRA, Metabolic Activation: NONE, Method: PREINCUBATION) of the same molecule?
A: inactive; negative

Q: And the mutagenic call (Test System: E. COLI, Strain/Indicator: WP2 UVRA, Metabolic Activation: RAT, LIVER, S-9, PHENOBARBITAL AND 5,6-BENZOFLAVONE, Method: PREINCUBATION)?
A: inactive; negative
